Measurements reported in paper PMC2248166, “Quantitative peptide binding motifs for 19 human and mouse MHC class I molecules derived using positional scanning combinatorial peptide libraries” (Immunome Research, 2008).
Where a SMILES comes first, the peptide text is derived from it.

Tests used:
HLA B*1501 = HLA B*1501 (Homo sapiens, UniProt P01889, A329T/A93T/A95T/C349S/D201E/D98Y/E187L/E204Q/E69M/E70A/K202T/N87E/Q94N/R155S/R180W/S121R/S35A/S48A/V306I/V36M/Y140S/Y91S); experiment: biochemical; assay type: binding
HLA B*1503 = HLA B*1503 (Homo sapiens, UniProt P01889, A329T/A93T/A95T/C349S/D201E/D98Y/E187L/E204Q/K202T/N87E/Q94N/R155S/R180L/S121R/S35A/V306I/V36M/Y140S/Y91S); experiment: biochemical; assay type: binding

SMILES | IC50 (HLA B*1501) | IC50 (HLA B*1503)
CC(C)C[C@H](NC(=O)[C@H](Cc1ccccc1)NC(=O)[C@@H](NC(=O)[C@H](CCCCN)NC(=O)[C@H](CO)NC(=O)[C@@H](N)CO)C(C)C)C(=O)N[C@@H](CCCCN)C(=O)N[C@@H](C)C(=O)N[C@@H](Cc1ccccc1)C(=O)O [3102.0662] (H-SSKVFLKAF-OH) | 1.7 nM | 0.37 nM
CC[C@H](C)[C@H](NC(=O)[C@H](CO)NC(=O)[C@@H](N)Cc1c[nH]c2ccccc12)C(=O)N[C@@H](Cc1ccc(O)cc1)C(=O)N[C@@H](CC(C)C)C(=O)N[C@@H](CO)C(=O)N[C@@H](CC(C)C)C(=O)N[C@@H](Cc1c[nH]cn1)C(=O)N[C@@H](Cc1ccc(O)cc1)C(=O)O [3102.0867] (H-WSIYLSLHY-OH) | 48 nM | 8.9 nM
CC[C@H](C)[C@H](NC(=O)[C@H](CO)NC(=O)[C@@H](N)CC(C)C)C(=O)N[C@@H](CC(N)=O)C(=O)N[C@@H](CO)C(=O)N[C@@H](CO)C(=O)N[C@@H](Cc1ccccc1)C(=O)N[C@@H](Cc1ccc(O)cc1)C(=O)N[C@@H](Cc1ccccc1)C(=O)O [3102.1034] (H-LSINSSFYF-OH) | 1 nM | 4.8 nM
CC(C)C[C@H](NC(=O)[C@@H](NC(=O)[C@H](CO)NC(=O)[C@@H](NC(=O)[C@H](CC(N)=O)NC(=O)[C@H](CC(C)C)NC(=O)[C@@H](N)CO)[C@@H](C)O)[C@@H](C)O)C(=O)NCC(=O)N[C@@H](Cc1ccccc1)C(=O)O [3102.1051] (H-SLNTSTLGF-OH) | 1.7 nM | 13 nM
CC[C@H](C)[C@H](NC(=O)[C@H](Cc1c[nH]cn1)NC(=O)[C@H](CO)NC(=O)[C@@H](NC(=O)[C@@H](NC(=O)[C@H](Cc1ccc(O)cc1)NC(=O)[C@H](C)NC(=O)[C@H](CCSC)NC(=O)[C@@H](N)Cc1ccccc1)[C@@H](C)O)[C@@H](C)O)C(=O)O [3102.1071] (H-FMAYTTSHI-OH) | 133 nM | 7.6 nM
CC[C@H](C)[C@H](N)C(=O)N[C@@H](CO)C(=O)N[C@H](C(=O)N[C@@H](CC(C)C)C(=O)N[C@H](C(=O)NCC(=O)N[C@@H](CO)C(=O)N[C@@H](CO)C(=O)N[C@H](C(=O)O)[C@@H](C)CC)[C@@H](C)O)C(C)C [3102.1072] (H-ISVLTGSSI-OH) | 34 nM | 25 nM
CC(C)C[C@H](NC(=O)[C@@H](N)CCCNC(=N)N)C(=O)N[C@@H](CC(N)=O)C(=O)N1CCC[C@H]1C(=O)N[C@@H](CCC(=O)O)C(=O)N[C@H](C(=O)N[C@@H](CO)C(=O)N[C@@H](Cc1ccc(O)cc1)C(=O)N[C@@H](Cc1ccccc1)C(=O)O)C(C)C [3102.1097] (H-RLNPEVSYF-OH) | 0.3 nM | 0.32 nM
CC[C@H](C)[C@H](NC(=O)[C@H](CCC(N)=O)NC(=O)[C@@H](N)CO)C(=O)N[C@H](C(=O)N[C@H](C(=O)N[C@@H](CC(C)C)C(=O)N[C@H](C(=O)N[C@@H](C)C(=O)N[C@@H](Cc1ccccc1)C(=O)O)[C@@H](C)O)[C@@H](C)O)[C@@H](C)CC [3102.1111] (H-SQIITLTAF-OH) | 1 nM | 0.79 nM
CC(C)[C@H](NC(=O)[C@H](CCC(N)=O)NC(=O)[C@@H](N)CO)C(=O)N[C@@H](CCCCN)C(=O)N[C@@H](CS)C(=O)N[C@@H](CS)C(=O)N[C@@H](Cc1c[nH]cn1)C(=O)N[C@@H](Cc1ccc(O)cc1)C(=O)N[C@@H](Cc1ccccc1)C(=O)O [3102.1126] (H-SQVKCCHYF-OH) | 0.92 nM | 0.92 nM
CSCC[C@H](NC(=O)[C@@H](N)C(C)C)C(=O)N[C@H](C(=O)N[C@H](C(=O)N[C@@H](CO)C(=O)N[C@@H](CCCCN)C(=O)N1CCC[C@H]1C(=O)N[C@@H](CC(C)C)C(=O)N[C@@H](Cc1ccccc1)C(=O)O)[C@@H](C)O)C(C)C [3102.1148] (H-VMVTSKPLF-OH) | 16 nM | 8.8 nM
CSCC[C@H](NC(=O)[C@H](CO)NC(=O)[C@H](CCSC)NC(=O)[C@@H](N)CCSC)C(=O)N[C@@H](Cc1ccc(O)cc1)C(=O)NCC(=O)N[C@@H](CCCCN)C(=O)N[C@@H](C)C(=O)N[C@@H](Cc1ccccc1)C(=O)O [3102.1173] (H-MMSMYGKAF-OH) | 3.2 nM | 2.6 nM
CC(C)C[C@H](NC(=O)[C@H](CC(C)C)NC(=O)[C@@H](NC(=O)[C@H](CO)NC(=O)[C@H](Cc1ccc(O)cc1)NC(=O)[C@H](CC(C)C)NC(=O)[C@@H](N)CCC(N)=O)[C@@H](C)O)C(=O)N[C@@H](CO)C(=O)N[C@@H](Cc1ccccc1)C(=O)O [3102.1175] (H-QLYSTLLSF-OH) | 3 nM | 0.57 nM
CSCC[C@H](NC(=O)[C@H](Cc1ccc(O)cc1)NC(=O)[C@H](CCCCN)NC(=O)[C@H](CO)NC(=O)[C@H](Cc1ccccc1)NC(=O)[C@H](C)NC(=O)[C@@H](N)Cc1ccc(O)cc1)C(=O)N[C@@H](CO)C(=O)N[C@@H](Cc1ccccc1)C(=O)O [3102.1180] (H-YAFSKYMSF-OH) | 9 nM | 1.8 nM
C[C@@H](O)[C@H](NC(=O)[C@H](CCCCN)NC(=O)[C@H](Cc1ccc(O)cc1)NC(=O)[C@H](CCC(N)=O)NC(=O)[C@@H](N)CCC(=O)O)C(=O)N[C@@H](CCC(=O)O)C(=O)N[C@@H](CO)C(=O)N[C@@H](Cc1ccccc1)C(=O)N[C@@H](Cc1ccccc1)C(=O)O [3102.1224] (H-EQYKTESFF-OH) | 6.6 nM | 1.8 nM
CSCC[C@H](NC(=O)[C@H](Cc1c[nH]cn1)NC(=O)[C@H](CCC(N)=O)NC(=O)CNC(=O)[C@@H]1CCCN1C(=O)[C@@H]1CCCN1C(=O)[C@H](C)NC(=O)[C@H](CO)NC(=O)[C@@H](N)CS)C(=O)O [3102.1226] (H-CSAPPGQHM-OH) | 53 nM | 24 nM
CC(C)[C@H](NC(=O)[C@H](Cc1ccccc1)NC(=O)CNC(=O)[C@H](Cc1c[nH]cn1)NC(=O)[C@H](CC(N)=O)NC(=O)[C@H](CCC(N)=O)NC(=O)[C@@H](N)Cc1ccc(O)cc1)C(=O)N[C@@H](CO)C(=O)N[C@@H](Cc1ccccc1)C(=O)O [3102.1231] (H-YQNHGFVSF-OH) | 0.17 nM | 2.4 nM
CC(C)C[C@H](NC(=O)[C@@H]1CCCN1C(=O)[C@H](CC(N)=O)NC(=O)[C@H](C)NC(=O)[C@@H](N)Cc1ccccc1)C(=O)N[C@@H](CO)C(=O)N[C@@H](CC(N)=O)C(=O)N1CCC[C@H]1C(=O)N[C@@H](Cc1ccccc1)C(=O)O [3102.1245] (H-FANPLSNPF-OH) | 1.7 nM | 1.9 nM
CC[C@H](C)[C@H](NC(=O)[C@H](CCC(N)=O)NC(=O)[C@@H](N)CO)C(=O)N[C@@H](CCC(=O)O)C(=O)N[C@H](C(=O)NCC(=O)N[C@H](C(=O)N1CCC[C@H]1C(=O)N[C@@H](Cc1ccccc1)C(=O)O)[C@@H](C)O)[C@@H](C)O [3102.1253] (H-SQIETGTPF-OH) | 0.61 nM | 1.3 nM
CC[C@H](C)[C@H](NC(=O)[C@H](Cc1c[nH]cn1)NC(=O)[C@H](CCCCN)NC(=O)[C@H](CC(N)=O)NC(=O)[C@H](CCSC)NC(=O)[C@@H](N)Cc1ccccc1)C(=O)N[C@@H](CC(C)C)C(=O)N[C@@H](CO)C(=O)N[C@@H](Cc1ccc(O)cc1)C(=O)O [3102.1258] (H-FMNKHILSY-OH) | 1.7 nM | 0.74 nM
CC[C@H](C)[C@H](NC(=O)[C@H](C)NC(=O)[C@H](CCSC)NC(=O)[C@@H](NC(=O)[C@@H](NC(=O)[C@@H](N)C(C)C)[C@@H](C)CC)[C@@H](C)CC)C(=O)N[C@@H](CC(N)=O)C(=O)N[C@H](C(=O)N[C@@H](Cc1ccccc1)C(=O)O)C(C)C [3102.1303] (H-VIIMAINVF-OH) | 26 nM | 
